Data taken from PMC6832352, “Synthesis and Glycosidase Inhibition of Broussonetine M and Its Analogues” (Molecules, 2019).

Legend:
[1] = molecular target: T1, α-Glucosidase (Oryza sativa subsp. japonica, UniProt Q653V7); test: glycosidase inhibition assay, rice α-glucosidase; type: biochemical; settings: for inhibition at 100 µM: α-Glucosidase, Rice
T1 construct: purchased Sigma-Aldrich Chemical Co
Procedure: (§1) With rat intestinal maltase as an exception, other enzymes were purchased from Sigma-Aldrich Chemical Co. (St. Louis, Mo. USA). Brush border membranes prepared from rat small intestine according to the method of Kessler et al. were assayed at pH 6.8 for rat intestinal maltase using maltose. The released D-glucose was determined colorimetrically using the Glucose CII-test Wako (Wako Pure Chemical Ind.; Osaka, Japan). Other glycosidase activities were determined using an appropriate p-nitrophenyl glycoside as substrate in a buffer solution at the optimal pH value of each enzyme. The reaction was stopped by adding 400 mM Na2CO3. The released p-nitrophenol was measured spectrometrically at 400 nm.

[2] = molecular target: T2, α-Galactosidase (Coffea arabica, UniProt Q42656); test: glycosidase inhibition assay, coffee beans α-galactosidase; type: biochemical; settings: for IC50: α-Galactosidase, Coffee beans
T2 construct: purchased Sigma-Aldrich Chemical Co
T2 sequence (Q42656 16-378): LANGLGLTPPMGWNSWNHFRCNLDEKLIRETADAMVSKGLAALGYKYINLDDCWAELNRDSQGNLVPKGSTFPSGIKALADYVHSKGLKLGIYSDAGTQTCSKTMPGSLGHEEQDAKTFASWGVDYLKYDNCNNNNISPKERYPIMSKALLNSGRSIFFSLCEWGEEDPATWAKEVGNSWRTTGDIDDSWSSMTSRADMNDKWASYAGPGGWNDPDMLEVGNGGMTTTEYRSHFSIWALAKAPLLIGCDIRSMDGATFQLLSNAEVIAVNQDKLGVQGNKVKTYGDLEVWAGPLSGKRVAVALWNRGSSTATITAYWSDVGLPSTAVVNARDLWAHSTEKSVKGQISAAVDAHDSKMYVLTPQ
Procedure: as §1

[3] = molecular target: T3, α-Mannosidase (Canavalia ensiformis, UniProt C0HJB3); test: glycosidase inhibition assay, jack bean α-mannosidase; type: biochemical
T3 construct: purchased Sigma-Aldrich Chemical Co
T3 sequence (C0HJB3 1-981): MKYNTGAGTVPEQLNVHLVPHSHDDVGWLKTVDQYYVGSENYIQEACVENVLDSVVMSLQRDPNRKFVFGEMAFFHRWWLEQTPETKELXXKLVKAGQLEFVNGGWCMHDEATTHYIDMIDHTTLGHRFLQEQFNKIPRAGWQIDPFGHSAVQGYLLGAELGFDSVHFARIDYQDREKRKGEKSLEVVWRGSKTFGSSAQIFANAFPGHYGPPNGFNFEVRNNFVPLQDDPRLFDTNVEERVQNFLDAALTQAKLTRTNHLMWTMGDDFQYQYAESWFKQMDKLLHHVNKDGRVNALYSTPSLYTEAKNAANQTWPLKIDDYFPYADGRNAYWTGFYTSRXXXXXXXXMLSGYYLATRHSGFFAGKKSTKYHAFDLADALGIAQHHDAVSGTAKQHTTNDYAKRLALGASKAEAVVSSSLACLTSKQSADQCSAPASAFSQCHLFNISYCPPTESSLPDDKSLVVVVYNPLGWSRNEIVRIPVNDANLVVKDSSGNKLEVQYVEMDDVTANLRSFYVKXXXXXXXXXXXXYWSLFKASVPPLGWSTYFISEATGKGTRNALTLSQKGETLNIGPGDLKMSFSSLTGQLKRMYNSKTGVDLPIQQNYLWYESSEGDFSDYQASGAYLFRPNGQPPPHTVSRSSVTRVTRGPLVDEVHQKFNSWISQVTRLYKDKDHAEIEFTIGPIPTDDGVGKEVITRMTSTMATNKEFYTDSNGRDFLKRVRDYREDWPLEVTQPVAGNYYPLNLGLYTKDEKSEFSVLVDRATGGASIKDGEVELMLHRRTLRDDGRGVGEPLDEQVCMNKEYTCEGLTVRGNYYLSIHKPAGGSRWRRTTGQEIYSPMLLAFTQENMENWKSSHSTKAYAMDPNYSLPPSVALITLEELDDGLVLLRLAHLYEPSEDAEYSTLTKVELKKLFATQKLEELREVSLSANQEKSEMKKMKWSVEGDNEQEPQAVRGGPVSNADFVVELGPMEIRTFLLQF
Procedure: as §1

[4] = molecular target: T4, α-L-Rhamnosidase (Penicillium decumbens, UniProt S7ZS15); test: glycosidase inhibition assay, P. decumbens α-L-rhamnosidase; type: biochemical
T4 sequence (S7ZS15 1-894): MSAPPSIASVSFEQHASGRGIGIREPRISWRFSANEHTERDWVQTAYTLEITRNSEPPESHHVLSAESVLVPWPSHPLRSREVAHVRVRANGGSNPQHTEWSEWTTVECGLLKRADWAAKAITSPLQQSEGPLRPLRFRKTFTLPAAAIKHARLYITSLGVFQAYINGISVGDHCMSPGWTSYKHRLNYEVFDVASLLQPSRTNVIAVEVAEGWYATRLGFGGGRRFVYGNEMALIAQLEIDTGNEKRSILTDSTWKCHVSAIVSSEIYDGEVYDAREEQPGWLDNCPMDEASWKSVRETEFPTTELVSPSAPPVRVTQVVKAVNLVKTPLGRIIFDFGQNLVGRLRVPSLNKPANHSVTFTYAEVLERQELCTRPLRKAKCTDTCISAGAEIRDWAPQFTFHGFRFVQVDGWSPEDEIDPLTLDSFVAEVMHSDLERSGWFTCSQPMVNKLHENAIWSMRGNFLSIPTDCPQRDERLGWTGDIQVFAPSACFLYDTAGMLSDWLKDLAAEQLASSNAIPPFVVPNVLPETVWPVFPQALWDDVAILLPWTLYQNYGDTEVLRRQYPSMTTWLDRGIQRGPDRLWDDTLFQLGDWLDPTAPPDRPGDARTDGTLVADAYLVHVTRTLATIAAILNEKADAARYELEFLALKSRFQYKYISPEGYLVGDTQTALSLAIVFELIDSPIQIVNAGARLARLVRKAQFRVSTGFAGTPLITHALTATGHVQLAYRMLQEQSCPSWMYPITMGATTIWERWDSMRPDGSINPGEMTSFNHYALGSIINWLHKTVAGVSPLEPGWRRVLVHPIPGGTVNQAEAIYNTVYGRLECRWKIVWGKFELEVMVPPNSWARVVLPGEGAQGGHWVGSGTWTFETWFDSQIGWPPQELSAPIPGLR
Procedure: as §1

[5] = molecular target: β-Galactosidase; settings: β-galactosidase from bovine liver; natural product isolated by Kusano’s group; cited from earlier work
[6] = molecular target: T5, β-Glucosidase (Bos taurus, UniProt F1MNT6); test: glycosidase inhibition assay, bovine liver β-glucosidase; type: biochemical
T5 sequence (F1MNT6 1-469): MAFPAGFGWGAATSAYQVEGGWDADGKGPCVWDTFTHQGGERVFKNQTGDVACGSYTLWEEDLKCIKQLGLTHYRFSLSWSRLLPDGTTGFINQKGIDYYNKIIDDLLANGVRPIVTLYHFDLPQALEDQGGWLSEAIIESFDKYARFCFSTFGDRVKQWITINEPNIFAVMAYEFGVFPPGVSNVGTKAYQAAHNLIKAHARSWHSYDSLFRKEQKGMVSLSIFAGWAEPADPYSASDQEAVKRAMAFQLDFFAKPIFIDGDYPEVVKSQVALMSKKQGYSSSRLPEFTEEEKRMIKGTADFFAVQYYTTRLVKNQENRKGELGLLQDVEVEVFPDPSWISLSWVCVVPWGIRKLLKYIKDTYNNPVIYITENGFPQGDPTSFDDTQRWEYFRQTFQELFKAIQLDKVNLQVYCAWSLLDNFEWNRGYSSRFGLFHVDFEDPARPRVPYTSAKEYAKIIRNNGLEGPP
Procedure: as §1

T1 sequence (Q653V7 34-885): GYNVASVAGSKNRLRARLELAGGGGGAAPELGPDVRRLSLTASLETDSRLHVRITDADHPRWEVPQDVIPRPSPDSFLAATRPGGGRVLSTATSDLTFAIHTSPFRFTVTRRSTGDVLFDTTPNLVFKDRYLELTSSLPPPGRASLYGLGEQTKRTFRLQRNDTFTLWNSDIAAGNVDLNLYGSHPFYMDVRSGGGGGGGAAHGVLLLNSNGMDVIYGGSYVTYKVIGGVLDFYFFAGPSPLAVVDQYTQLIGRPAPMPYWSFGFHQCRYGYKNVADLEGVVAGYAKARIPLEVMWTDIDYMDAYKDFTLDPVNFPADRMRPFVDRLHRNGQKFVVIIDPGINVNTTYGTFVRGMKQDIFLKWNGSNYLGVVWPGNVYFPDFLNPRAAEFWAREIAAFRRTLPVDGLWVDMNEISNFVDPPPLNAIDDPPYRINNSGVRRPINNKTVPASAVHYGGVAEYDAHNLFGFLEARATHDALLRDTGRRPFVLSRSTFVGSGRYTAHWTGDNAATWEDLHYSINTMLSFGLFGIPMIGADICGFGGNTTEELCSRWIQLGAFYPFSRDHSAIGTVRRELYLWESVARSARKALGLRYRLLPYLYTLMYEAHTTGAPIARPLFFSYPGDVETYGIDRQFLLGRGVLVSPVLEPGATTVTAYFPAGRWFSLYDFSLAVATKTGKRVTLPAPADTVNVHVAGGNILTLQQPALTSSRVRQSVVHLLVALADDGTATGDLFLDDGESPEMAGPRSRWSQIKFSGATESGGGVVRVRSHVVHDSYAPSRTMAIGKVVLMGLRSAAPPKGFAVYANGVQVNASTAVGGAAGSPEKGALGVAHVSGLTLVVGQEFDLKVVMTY

Structure (SMILES) | IC50 [1] | inhibition at 100 µM [2] | IC50 [2] | IC50 [3] | inhibition at 100 µM [3] | inhibition at 100 µM [4] | inhibition at 100 µM [1] | IC50 [5] | inhibition at 100 µM [6]
OCCCC(O)CCCCCCCCCC1NC(CO)C(O)C1O [2,10-di-epi-3, (2S,3R,4R,5R)-2-hydroxymethyl-3,4-dihydroxyl-5-((10S)-10,13-(dihydroxyl)dec-1-yl) pyrrolidine] | 12 µM | 0% | > 100 µM | > 100 µM | 0.32% | 4.7% | – | – | –
OCCC[C@@H](O)CCCCCCCCC[C@H]1N[C@@H](CO)[C@@H](O)[C@@H]1O [2-epi-3, (2S,3R,4R,5R)-2-hydroxymethyl-3,4-dihydroxyl-5-((10R)-10,13-(dihydroxyl)dec-1-yl) pyrrolidine] | > 100 µM | 0% | > 100 µM | > 100 µM | 0% | 3.3% | 5.6% | – | –
OCCC[C@H](O)CCCCCCCCC[C@H]1N[C@H](CO)[C@@H](O)[C@@H]1O [10’-epi-3, (2R,3R,4R,5R)-2-hydroxymethyl-3,4-dihydroxyl-5-((10S)-10,13-(dihydroxyl)dec-1-yl) pyrrolidine] | > 100 µM | 0% | > 100 µM | > 100 µM | 0% | 4.7% | 0% | – | –
OCCC[C@@H](O)CCCCCCCCC[C@H]1N[C@H](CO)[C@@H](O)[C@@H]1O [compound 3, (2R,3R,4R,5R)-2-hydroxymethyl-3,4-dihydroxyl-5-((10R)-10,13-(dihydroxyl)dec-1-yl)pyrrolidine] | > 100 µM | 0% | > 100 µM | > 100 µM | 2.5% | 6.1% | 0% | 8.1 µM | –
OCCC[C@@H](O)CCCCCCCCC[C@@H]1N[C@@H](CO)[C@@H](O)[C@H]1O [ent-3,10-di-epi-3] | > 100 µM | 0% | > 100 µM | > 100 µM | 0% | 11.4% | 9.5% | – | –
OCCC[C@H](O)CCCCCCCCC[C@@H]1N[C@@H](CO)[C@H](O)[C@H]1O [ent-3, (2S,3S,4S,5S)-2-hydroxymethyl-3,4-dihydroxyl-5-((10S)-10,13-(dihydroxyl)dec-1-yl) pyrrolidine] | 1.2 µM | 0.3% | > 100 µM | > 100 µM | 2.2% | 13.3% | – | – | 46.5%
OCCC[C@H](O)CCCCCCCCC[C@@H]1N[C@@H](CO)[C@@H](O)[C@H]1O [ent-3-epi-3, (2S,3R,4S,5S)-2-hydroxymethyl-3,4-dihydroxyl-5-((10S)-10,13-(dihydroxyl)dec-1-yl) pyrrolidine] | > 100 µM | 0% | > 100 µM | > 100 µM | 1.3% | 15.2% | 23% | – | –
OCCC[C@@H](O)CCCCCCCCC[C@@H]1N[C@@H](CO)[C@H](O)[C@H]1O [ent-10’-epi-3] | 1.3 µM | 12.2% | > 100 µM | > 100 µM | 1.8% | 1.8% | – | – | –
